Data from ChEMBL document CHEMBL3868594, “From lead optimization to NDA approval for a new antimicrobial: Use of pre-clinical effect models and pharmacokinetic/pharmacodynamic mathematical modeling” (2016).

Legend:
Type in all cases: functional
[1] = system: Mycobacterium tuberculosis; experiment: Antibacterial activity against linezolid-resistant Mycobacterium tuberculosis H37Rv in hollow-fiber infection model assessed as reduction in bacterial burden at 858 mg, po at 24 hrs dose regimen measured after 3 weeks
[2] = system: Mycobacterium tuberculosis; experiment: Antibacterial activity against linezolid-resistant Mycobacterium tuberculosis H37Rv in hollow-fiber infection model assessed as reduction in bacterial burden at 1116 mg, po at 24 hrs dose regimen measured after 3 weeks
[3] = system: Mycobacterium tuberculosis; experiment: Antibacterial activity against linezolid-resistant Mycobacterium tuberculosis H37Rv in hollow-fiber infection model assessed as reduction in bacterial burden at 342 mg, po at 24 hrs dose regimen measured after 3 weeks
[4] = system: Mycobacterium tuberculosis; experiment: Antibacterial activity against linezolid-resistant Mycobacterium tuberculosis H37Rv in hollow-fiber infection model assessed as reduction in bacterial burden at 600 mg, po at 24 hrs dose regimen measured after 3 weeks

CC(=O)NC[C@H]1CN(c2ccc(N3CCOCC3)c(F)c2)C(=O)O1 [LINEZOLID]
Activity [1]: 3 log10CFU/ml
Activity [2]: 3 log10CFU/ml
Activity [3]: 0.5 log10CFU/ml
Activity [4]: 1.7 log10CFU/ml
